In patent US11590156B2, “RNAi agents for hepatitis B virus infection” (Arrowhead Pharmaceuticals, Inc., priority 2016, dated 2023):

Legend:
[1] = tested on: HBV genotype C; serum HBV DNA; test: Serum HBV DNA levels in HBV-infected humanized FRG model mice; format: in vivo, FRG mice transplanted with human hepatocytes; settings: for Serum HBV DNA levels normalized to the average of pre-treatment day −10 and day −3: PBS (no RNAi agent), oral daily gavage 0.01 mg/kg Entecavir from day 1
Procedure: iv) Serum HBV DNA levels: Equal volumes of serum from mice in a group or subgroup were pooled to a final volume of 100 μL. DNA was isolated from serum samples using the QIAamp MinElute Virus Spin Kit (Qiagen, Valencia, Calif.) following the manufacturer's instructions. Sterile 0.9% saline was added to each sample to a final volume of 200 μL. Serum samples were added to tubes containing buffer and protease. Carrier RNA was added to aid in the isolation of small amounts of DNA. […] After incubating 15 min at 56° C., nucleic acids were precipitated from the lysates with ethanol and the entire solution applied to a column. After washing, the samples were eluted into a volume of 50 μL Buffer AVE.
The number of copies of HBV genomes in DNA isolated from the pHBV mouse model serum was determined by qPCR. Plasmid pSEAP-HBV353-777, encoding a short segment of the HBV genome within the S gene (bases 353-777 of GenBank accession #V01460), was used to create a six log standard curve. Samples with recovery of DNA below 2 standard deviations from the average, based on detection of pHCR/UbC-SEAP were omitted. TaqMan chemistry-based primers and probes with fluor/ZEN/IBFQ are utilized.
qPCR assays were performed on a 7500 Fast or StepOne Plus Real-Time PCR system (Life Technologies). For evaluation of HBV DNA in serum, DNA was isolated from singlet or duplicate purification steps from pooled group serum samples. Quantitations of HBV DNA and recovery control plasmid were determined by qPCR reactions performed in triplicate. The probes to quantitate HBV and pHCR/UbC-SEAP were included in each reaction.
For this study, Male FRG® (genotype Fah −/−/Rag2−/−/Il2rg −/− triple knockout mice on a C57BL/6 background (Yecuris) were transplanted with human hepatocytes when they were 1-2 months old. The human hepatocytes were allowed to repopulate the liver for approximately 6 months with periodic NTBC treatment to discourage growth of mouse hepatocytes. At 9 months of age the mice were given an intravenous inoculation of 4×10^8 genomes/kg HBV genotype C, which infected the human hepatocytes. After 2-3 months, serum HBV DNA levels reached a plateau indicating the human hepatocytes were maximally infected (mouse hepatocytes cannot be infected by HBV). Mice were one year old at the start of treatment with HBV RNAi agents, thus nearing the end of their life span.
Pre-treatment serum samples were taken on day −10 and day −3. Beginning on day 1, each mouse was administered an oral daily gavage with 0.01 mg/kg Entecavir dissolved in water to inhibit HBV replication. Daily dosing of Entecavir continued until the day mice were euthanized. Entecavir administration was expected to reduce serum HBV DNA in chronically infected human patients, but not reduce HBsAg.
Each mouse was also given a subcutaneous administration of 100 μl per 20 grams body weight containing the amount of HBV RNAi agent(s) formulated in phosphate buffered saline, or an equal volume of phosphate buffered saline without an HBV RNAi agent, on day 1 and on day 29 (if still alive on day 29), pursuant to the schedule as set forth in Table 47, directly above. […] The injections were performed between the skin and muscle (i.e. subcutaneous injections) into the loose skin over the neck and shoulder area.
Additionally, serum HBV DNA levels were determined from serum samples collected on days −10, −3, 8, 15, 22, 29, 36, and 40, pursuant to the procedure set forth in Example 2, above.

[2] = tested on: HBV genotype C; serum HBsAg; test: Serum HBsAg levels in HBV-infected humanized FRG model mice; format: in vivo, FRG mice transplanted with human hepatocytes; settings: mouse A-1; PBS (no RNAi agent); oral daily gavage 0.01 mg/kg Entecavir from day 1; Day 8
Procedure: ii) Serum Hepatitis B surface antigen (HBsAg) levels: Serum was collected and diluted 10 to 8000-fold in PBS containing 5% nonfat dry milk. Secondary HBsAg standards diluted in the nonfat milk solution were prepared from serum of ICR mice (Harlan Sprague Dawley) that had been transfected with 10 μg HBsAg-expressing plasmid pRc/CMV-HBs (Aldevron, Fargo, N. Dak.). HBsAg levels were determined with a GS HBsAg EIA 3.0 kit (Bio-Rad Laboratories, Inc., Redmond, Wash.) as described by the manufacturer. Recombinant HBsAg protein, ayw subtype, also diluted in nonfat milk in PBS, was used as a primary standard (Aldevron). […]
Serum was collected on day 8, day 15, day 22, day 29, day 36, and day 40 and serum Hepatitis B surface antigen (HBsAg) levels were determined pursuant to the procedure set forth in Example 2, above.

C=C1[C@H](CO)[C@@H](O)C[C@@H]1n1cnc2c(=O)[nH]c(N)nc21 [Entecavir] was tested, and the “viral replication (serum HBV DNA)” value ([1]; Example 18, 0.01 mg/kg Entecavir oral daily gavage) was “reduced viral replication in both the absence and presence of HBV RNAi agents”, the “Serum HBV DNA levels normalized to the average of pre-treatment day −10 and day −3” value (from here on “Serum HBV DNA levels normalized”) ([1]; mouse A-1, Day 8) was 0.072 and the “Serum HBV DNA levels normalized” value ([1]; mouse A-1, Day 15) was 0.038. The “Serum HBV DNA levels normalized” value ([1]; mouse A-1, Day 22) was 0.015, the “Serum HBV DNA levels normalized” value ([1]; mouse A-1, Day 29) was 0.027 and the “Serum HBV DNA levels normalized” value ([1]; mouse A-1, Day 36) was 0.060. The “Serum HBV DNA levels normalized” value ([1]; mouse A-2, Day 8) was 0.130, the “Serum HBV DNA levels normalized” value ([1]; mouse A-2, Day 15) was 0.075 and the “Average HBsAg levels normalized to pre-treatment (day −3)” value [2] was 0.830.
